Data as given in patent publication US7705004B2, “Protein kinase inhibitors” (Portola Pharmaceuticals, Inc., priority 2007, dated 2010).

Tests used:
[1] = tested on: human platelet-rich plasma (PRP); assay: Convulxin-induced aggregation assay (cuvette light transmittance); type: cell-based; conditions: 125-250 ng/mL Convulxin, read-out: IC50, inhibition of convulxin-induced aggregation of platelet rich plasma
Procedure: For preparation of human platelet-rich plasma (PRP) for aggregation assays, human venous blood was collected from healthy, drug-free volunteers into 0.38% sodium citrate (0.013 M, pH 7.0 final). PRP was prepared by centrifugation of whole blood at 160×g for 20 minutes at room temperature. The PRP layer was removed, transferred to a new tube, and the platelet count was adjusted, if necessary, to achieve a platelet concentration of ˜3×10^8 platelets/mL using platelet-poor plasma (PPP). PPP was prepared by centrifugation of the remaining blood sample (after removal of PRP) for 20 minutes at 800×g. This preparation of PRP may be subsequently used for aggregation assays in either a 96-well plate or standard cuvette aggregometry.
Inhibition of Convulxin-induced aggregation was determined by cuvette light transmittance aggregation assays. Serial dilutions (1:2) of test compounds were prepared in 30% DMSO in a 96-well V-bottom plate (final DMSO concentration in the cuvette was 0.3%). The test compound (5 μl of serial dilutions in DMSO) was preincubated with PRP for 20 minutes prior to initiation of the aggregation reactions, which were performed in a ChronoLog aggregometer by addition of agonist (125-250 ng/mL Convulxin) to 495 μL of PRP at 37° C. The aggregation reaction was recorded for 4 minutes, and the maximum extent of aggregation was determined by the difference in extent of aggregation at baseline, compared to the maximum aggregation that occurred during the 4 minute period of the assay. Inhibition of aggregation was calculated as the maximum aggregation observed in the presence of inhibitor, compared to that in the absence of inhibitor. IC50s were derived by non-linear regression analysis.

human washed platelets = assay: Inhibition of Convulxin-mediated platelet calcium mobilization in vitro; type: cell-based; conditions: 125 ng/mL Convulxin
Procedure: Inhibition of Convulxin-induced calcium mobilization was determined in human washed platelets using the FLIPR Calcium 3 Assay Kit (Molecular Devices, Sunnyvale, Calif.). For preparation of washed platelets, human venous blood was collected from healthy, drug-free volunteers into ACD (85 mM sodium citrate, 111 mM glucose, 71.4 mM citric acid) containing PGI2 (1.25 mL ACD containing 0.2 μM PGI2 final; PGI2 from Sigma, St. Louis, Mo.). Platelet-rich plasma (PRP) was prepared by centrifugation at 160×g for 20 minutes at room temperature. Washed platelets were prepared by centrifuging PRP for 10 minutes at 730×g and resuspending the platelet pellet in CGS (13 mM sodium citrate, 30 mM glucose, 120 mM NaCl; 2 mL CGS/10 mL original blood volume). The wash in CGS was repeated a second time, the platelets were collected by centrifugation at 730 g for 10 minutes and resuspended at a concentration of 3×10^8 platelets/mL in Hepes-Tyrode's buffer (10 mM Hepes, 138 mM NaCl, 5.5 mM glucose, 2.9 mM KCl, 12 mM NaHCO3, pH 7.4). This platelet suspension was allowed to rest for 45 minutes at room temperature before use in calcium mobilization assays.
For 96-well plate calcium-mobilization experiments, equal volumes of 3×10^8 washed platelets/mL were incubated with equal volumes of Calcium-3 Assay Reagent A resuspended in 1× Hank's Balanced Salt Solution, pH 7.4, 20 mM Hepes buffer. The total reaction volume of 0.2 mL/well included 1.5×10^8/mL washed platelet/Calcium-3 Assay reagent A mix, 10 μM Eptifibatide (Millennium Pharmaceuticals Inc, Cambridge, Mass.) and serial dilutions (1:3) of test compounds in 0.75% DMSO. DMSO alone was added to 1 well of each 8 set to allow for a maximal calcium-mobilization reading. After a 20 minute preincubation at room temperature, the 96-well microplate reader was loaded into the FlexStation (Molecular Devices, Sunnyvale, Calif.). The FlexStation experimental conditions for measuring calcium mobilization were set up using SOFTMax Pro. The settings used were as follows: Fluorescence parameters-assay mode: flex, excitation 485 nm, 525 nM with a cut-off of 515 nM; Parameters—PMT sensitivity-6, pipette height 230 μl, read time 2 minutes and 40 seconds, read intervals 2 seconds, temperature-23-25° C. After 18 seconds of baseline reading, calcium mobilization was initiated by the addition of Convulxin to a final concentration of 125 ng/mL. Inhibition of calcium mobilization was calculated as the maximum response observed in the presence of inhibitor, compared to that in the absence of inhibitor. IC50s were then derived by non-linear regression analysis.

SMILES	IC50 [1] [µM]	IC50 (human washed platelets) [µM]
OC1CCN(c2ccc(Nc3nc(Nc4ccc5cn[nH]c5c4)c4cc[nH]c4n3)cc2)CC1 [Compound 7-1, 1-(4-(4-(1H-indazol-6-ylamino)-7H-pyrrolo[2,3-d]pyrimidin-2-ylamino)phenyl)piperidin-4-ol]	≤ 50	
CC(=O)N1CCN(c2ccc(Nc3nc(Nc4ccc5c(C)n[nH]c5c4)c4cc[nH]c4n3)cc2)CC1 [Compound 2-1, 1-(4-(4-(4-(3-methyl-1H-indazol-6-ylamino)-7H-pyrrolo[2,3-d]pyrimidin-2-ylamino)phenyl)piperazin-1-yl)ethanone]	≤ 50	
CS(=O)(=O)N1CCN(c2ccc(Nc3nc(Nc4ccc5cn[nH]c5c4)c4cc[nH]c4n3)cc2)CC1 [Compound 8-1, N4-(1H-indazol-6-yl)-N2-(4-(4-(methylsulfonyl)piperazin-1-yl)phenyl)-7H-pyrrolo[2,3-d]pyrimidine-2,4-diamine]	≤ 50	< 1
CC(=O)N(C)c1ccc(Nc2nc(Nc3ccc4cn[nH]c4c3)c3cc[nH]c3n2)cc1 [Compound 6-1, N-(4-(4-(1H-indazol-6-ylamino)-7H-pyrrolo[2,3-d]pyrimidin-2-ylamino)phenyl)-N-methylacetamide]	≤ 50	
Cn1ncc2ccc(Nc3nc(Nc4ccc(N5CCNCC5)cc4)nc4[nH]ccc34)cc21 [Compound 22-1, N4-(1-methyl-1H-indazol-6-yl)-N2-(4-(piperazin-1-yl)phenyl)-7H-pyrrolo[2,3-d]pyrimidine-2,4-diamine]	≤ 50	
c1cc2c(Nc3ccc4scnc4c3)nc(Nc3ccc4cn[nH]c4c3)nc2[nH]1 [Compound 19-1, N4-(benzo[d]thiazol-5-yl)-N2-(1H-indazol-6-yl)-7H-pyrrolo[2,3-d]pyrimidine-2,4-diamine]	≤ 50	
CC(=O)N1CCN(c2ccc(Nc3nc(Nc4ccc5cn[nH]c5c4)c4c(C)c[nH]c4n3)cc2)CC1 [Compound 15-1, 1-(4-(4-(4-(1H-indazol-6-ylamino)-5-methyl-7H-pyrrolo[2,3-d]pyrimidin-2-ylamino)phenyl)piperazin-1-yl)ethanone]	≤ 50	
CC(=O)N1CCN(c2ccc(Nc3nc(Nc4ccc5[nH]ncc5c4)c4cc[nH]c4n3)cc2)CC1 [Compound 14-1, 1-(4-(4-(4-(1H-indazol-5-ylamino)-7H-pyrrolo[2,3-d]pyrimidin-2-ylamino)phenyl)piperazin-1-yl)ethanone]	≤ 50	
CC1(C)Oc2ccc(Nc3nc(Nc4ccc5c(c4)NC(=O)C(C)(C)O5)c4cc[nH]c4n3)cc2NC1=O [Compound 3-1]		< 1
CS(=O)(=O)c1ccc(Nc2nc(Nc3ccc4cn[nH]c4c3)c3cc[nH]c3n2)cc1 [Compound 9-1, N4-(1H-indazol-6-yl)-N2-(4-(methylsulfonyl)phenyl)-7H-pyrrolo[2,3-d]pyrimidine-2,4-diamine]	≤ 50	< 1
Cn1ncc2cc(Nc3nc(Nc4ccc(C(N)=O)cc4)nc4[nH]ccc34)ccc21 [Compound 25-1, 4-(4-(1-methyl-1H-indazol-5-ylamino)-7H-pyrrolo[2,3-d]pyrimidin-2-ylamino)benzamide]	≤ 50	
CC1(C)Oc2ccc(Nc3nc(Nc4ccc5cn[nH]c5c4)nc4[nH]ccc34)cc2NC1=O [Compound 16-1, 6-(2-(1H-indazol-6-ylamino)-7H-pyrrolo[2,3-d]pyrimidin-4-ylamino)-2,2-dimethyl-2H-benzo[b][1,4]oxazin-3(4H)-one]		< 1
c1cc2c(Nc3ccc4ncsc4c3)nc(Nc3ccc4cn[nH]c4c3)nc2[nH]1 [Compound 20-1, N4-(benzo[d]thiazol-6-yl)-N2-(1H-indazol-6-yl)-7H-pyrrolo[2,3-d]pyrimidine-2,4-diamine]	≤ 50	
NS(=O)(=O)c1ccc(Nc2nc(Nc3ccc4cn[nH]c4c3)c3cc[nH]c3n2)cc1 [Compound 11-1, 4-(4-(1H-indazol-6-ylamino)-7H-pyrrolo[2,3-d]pyrimidin-2-ylamino)benzenesulfonamide]	≤ 50	
CN(C)C(=O)C1CCN(c2ccc(Nc3nc(Nc4ccc5nc[nH]c5c4)c4cc[nH]c4n3)cc2)CC1 [Compound 18-1, 1-(4-(4-(1H-benzo[d]imidazol-6-ylamino)-7H-pyrrolo[2,3-d]pyrimidin-2-ylamino)phenyl)-N,N-dimethylpiperidine-4-carboxamide]	≤ 50	
C[S+]([O-])c1ccc(Nc2nc(Nc3ccc4cn[nH]c4c3)c3cc[nH]c3n2)cc1 (stereo not drawn) [Compound 10-2, N4-(1H-indazol-6-yl)-N2-(4-(methylsulfinyl)phenyl)-7H-pyrrolo[2,3-d]pyrimidine-2,4-diamine]	≤ 50	
CS(=O)(=O)N1CCN(c2ccc(Nc3nc(Nc4ccc5cnn(S(C)(=O)=O)c5c4)c4cc[nH]c4n3)cc2)CC1 [Compound 8-2, N4-(1-(methylsulfonyl)-1H-indazol-6-yl)-N2-(4-(4-(methylsulfonyl)piperazin-1-yl)phenyl)-7H-pyrrolo[2,3-d]pyrimidine-2,4-diamine]	≤ 50	< 1
CC(=O)N(C)c1ccc(Nc2nc(Nc3ccc4nc[nH]c4c3)c3cc[nH]c3n2)cc1 [Compound 17-1, N-(4-(4-(1H-benzo[D]imidazol-6-ylamino)-7H-pyrrolo[2,3-d]pyrimidin-2-ylamino)phenyl)-N-methylacetamide]	≤ 50	
CC(=O)N1CCN(c2ccc(Nc3nc(Nc4ccc5cnn(C)c5c4)c4cc[nH]c4n3)cc2)CC1 [Compound 22-2, 1-(4-(4-(4-(1-methyl-1H-indazol-6-ylamino)-7H-pyrrolo[2,3-d]pyrimidin-2-ylamino)phenyl)piperazin-1-yl)ethanone]	≤ 50	
NC(=O)c1ccc(Nc2nc(Nc3ccc4cn[nH]c4c3)c3cc[nH]c3n2)cc1 [Compound 12-1, 4-(4-(1H-indazol-6-ylamino)-7H-pyrrolo[2,3-d]pyrimidin-2-ylamino)benzamide]	≤ 50	
c1cc2c(Nc3ccc4cn[nH]c4c3)nc(Nc3ccc(N4CCNCC4)cc3)nc2[nH]1 [Compound 1-2, N4-(1H-indazol-6-yl)-N2-(4-(piperazin-1-yl)phenyl)-7H-pyrrolo[2,3-d]pyrimidine-2,4-diamine]	≤ 50	< 1
Cc1n[nH]c2cc(Nc3nc(Nc4ccc(N5CCNCC5)cc4)nc4[nH]ccc34)ccc12 [Compound 2-2, N4-(3-methyl-1H-indazol-6-yl)-N2-(4-(piperazin-1-yl)phenyl)-7H-pyrrolo[2,3-d]pyrimidine-2,4-diamine]	≤ 50	< 1
c1cc2c(Nc3ccc4cn[nH]c4c3)nc(Nc3ccc4cn[nH]c4c3)nc2[nH]1 [Compound 4-1, N2,N4-di(1H-indazol-6-yl)-7H-pyrrolo[2,3-d]pyrimidine-2,4-diamine]		< 1
CN1CCN(c2ccc(Nc3nc(Nc4ccc5cn[nH]c5c4)c4cc[nH]c4n3)cc2)CC1 [Compound 13-1, N4-(1H-indazol-6-yl)-N2-(4-(4-methylpiperazin-1-yl)phenyl)-7H-pyrrolo[2,3-d]pyrimidine-2,4-diamine]	≤ 50	
CSc1ccc(Nc2nc(Nc3ccc4cn[nH]c4c3)c3cc[nH]c3n2)cc1 [Compound 10-1, N4-(1H-indazol-6-yl)-N2-(4-(methylthio)phenyl)-7H-pyrrolo[2,3-d]pyrimidine-2,4-diamine]	≤ 50	
